# Assay results from publication PMC6100113, “Involvement of CYP4F2 in the Metabolism of a Novel Monophosphate Ester Prodrug of Gemcitabine and Its Interaction Potential In Vitro” (Molecules : A Journal of Synthetic Chemistry and Natural …, 2018).
# Legend:
# [1] = Metabolic stability in rat intestinal microsomes; type: in vitro ADME; settings: rat intestinal microsomes 0.2 mg/mL, with NADPH, 1 μM, 37 °C
# Experimental: Stability of Compound-3 was first investigated in microsomal systems from human and rat. The microsomal protein and Compound-3 concentrations were optimized to 0.2 mg/mL and 1 µM, respectively. Before the start of the incubation, reaction mixtures containing phosphate buffer (100 mM, pH 7.4), microsomes and Compound-3 in a total volume of 50 µL were warmed up at 37 °C for 10 min. The reaction was started with the addition of NADPH at a final concentration of 1 mM. Incubations were terminated at a specified time with the addition of 100 µL ice-cold acetonitrile containing the internal standard. The samples were then centrifuged, and aliquots of 10 µL of the supernatants were transferred into liquid chromatography-tandem mass spectrometry (LC-MS/MS) for the analysis of Compound-3 levels.
# [2] = Metabolite identification by UPLC/Triple TOF MS in human liver microsomes; type: in vitro ADME; set-up: key: √: metabolites were detected by high-resolution mass spectrometry; settings: Compound-3 10 μM, 1 mg/mL microsomes, NADPH, 60 min, HRMS
# Experimental: (§1) For metabolite identification, a higher concentration of Compound-3 (10 μM) was incubated with liver microsomes (1 mg/mL) in the presence of NADPH (1 mM) and primary human hepatocytes at a density of 1 × 10^6 cell/mL. Samples were collected at 0 min and 60 min with the addition of ice-cold acetonitrile. After vortexing and centrifugation, the supernatant was transferred into a new tube and evaporated to dryness. The samples were then reconstituted in 100 μL of water and methanol (v/v, 9:1). An aliquot of 10 μL of reconstituted solution was injected into UPLC/Triple TOF 5600^+ MS for metabolite identification.
# (§2) Identification of Compound-3 metabolites was carried out using Acquity UPLC/Triple TOF 5600^+ system. Chromatographic separation for Compound-3 and its metabolites were achieved by an Acquity UPLC HSS T3 column (100 × 2.1 mm i.d., […]; Waters Corp.) maintained at 40 °C. The mobile phase was a mixture of 0.02% formic acid in 5 mM ammonium acetate (A) and methanol (B). The gradient elution was started from 2% B and maintained for 4 min, then increased linearly to 75% B over the next 4 min and maintained for 8 min. […] The flow rate was 0.4 mL/min and the eluent was monitored by UV detection at 280 nm.
# (§3) For mass detection, a Triple TOF 5600^+ mass spectrometer (AB Sciex, Framingham, MA, USA) was operated in positive ion electrospray (ES-positive) mode with the source temperature at 500 °C and scan range from m/z 100 to 1000 Da. Other parameters were set as follows: ion spray voltage, 5500 V; decluttering potential, 80 V; curtain gas, 40 psi; ion source gas 1, 55 psi; and ion source gas 2, 50 psi. Collision energies of 25 and 65 eV were used for TOF MS and product ion scans, respectively, and a collision energy spread of 20 was used in the MS/MS analysis. Information-dependent acquisition (IDA), together with real-time multiple mass defect filter, was used to trigger acquisition of MS/MS spectra.
# [3] = test system: CYP1A2, CYP2B6, CYP2C8, CYP2C9, CYP2C19, CYP2D6, CYP4A11 and CYP4F3; experiment: Reaction phenotyping with the rest of the recombinant CYP isozymes; type: in vitro ADME, human; settings: 50 nM, 1 μM, NADPH
# Experimental: Compound-3 was incubated separately with human cDNA-expressed cytochrome P450s (CYP1A2, CYP2B6, CYP2C8, CYP2C9, CYP2C19, CYP2D6, CYP3A4, CYP4A11, CYP4F2 and CYP4F3). The incubation mixtures contained individual CYP isoenzymes (50 nM), potassium phosphate buffer (100 mM, pH 7.4), NADPH (1 mM), and Compound-3 (1 µM). The final volume of the incubation mixture was 50 µL. Before the start of the incubation, reaction mixtures were warmed up at 37 °C for 10 min. The reaction was initiated with the addition of NADPH and the incubations were performed at 37 °C in a water bath. After 60 min of incubation, the reactions were terminated with an equal volume of ice-cold acetonitrile containing the internal standard. Control samples without NADPH but substrates were included. The samples were then centrifuged and aliquots of 10 μL of the supernatants were transferred onto LC-MS/MS for the analysis of Compound-3 and M4 (carboxylic acid) levels.
# [4] = Metabolite identification by UPLC/Triple TOF MS in rat liver microsomes; type: in vitro ADME; set-up: key: √: metabolites were detected by high-resolution mass spectrometry; settings: Compound-3 10 μM, 1 mg/mL microsomes, NADPH, 60 min, HRMS
# Experimental: as §1, §2, §3
# [5] = Stability in human plasma; type: in vitro ADME; settings: 1 μM, 37 °C
# Experimental: For stability testing in plasma, the reaction was started with the addition of Compound-3 (1 µM). At specified time points, aliquots of 25 µL of the reaction mixtures were transferred into 100 μL ice-cold acetonitrile containing the internal standard. The samples were then centrifuged, and aliquots of 10 µL of the supernatants were transferred onto LC-MS/MS for the analysis of Compound-3 levels.
# [6] = test system: human equilibrative transporter 1 (hENT1); settings: cited from earlier work
smiles,measurement,setting,value
CCCCCCCCCCCCCCCCCCOCCOP(=O)(O)OCC1OC(n2ccc(N)nc2=O)C(F)(F)C1O (stereo not drawn) [Compound-3],disappearance in 60 min,[1],~ 20%
same,detected in matrix HLM,[2],√
same,metabolism of Compound-3 by CYP isozyme,[3],did not participate
same,detected in matrix RLM,[4],√
same,disappearance in plasma,[5],did not display noticeable disappearance
same,cellular uptake limitation by hENT1,[6],low propensity to be limited
